From patent US20230285570A1, “THERAPEUTICALLY USEFUL CURE-PRO MOLECULES FOR E3 LIGASE MEDIATED DEGRADATION OF PROTEINS, AND METHODS OF MAKING AND USING THEM” (CORNELL UNIVERSITY, priority 2020, published 2023) come the findings set out here.

Assay [1] has as its target T1, BRD4 (Homo sapiens, UniProt O60885). Kind of assay: CURE-PRO-mediated BRD4 degradation in MCF7 cells, Western blot. Format: cell-based. Details: endogenous in cells. The note with it: 1:1 with VHL ligand 8305, MCF7, 24 h, 100 nM-10 μM. The procedure: (§1) Namalwa, Ramosm HeLa, MCF7, or HT29 HCT116 cells (2.5-3×10^6) were treated for 24 hours with the indicated compounds solubilized in DMSO. The cells were washed in ice-cold PBS and were then lysed in RIPA lysis buffer (150 mM NaCl, 5 mM EDTA, 1% NP-40, 0.5% sodium deoxycholate, 0.1% SDS, 50 mM Tris, pH 8.0.) with Roche protease inhibitor complete cocktail and phosphatase inhibitors (10 mM sodium fluoride, 10 mM sodium pyrophosphate, 1 mM sodium orthovanadate and 20 mM β-glycerophosphate). The total protein concentrations were determined by Bradford Protein Assay (Pierce) and 10-20 μg of protein was loaded onto 4-15% Tris-Glycine gradient gels (Biorad). After standard gel electrophoresis, the separated proteins were transferred to PVDF membrane by wet transfer. The immunoblots were then blocked for 1 hour in 5% skim milk in TBST or 5% BSA in TBST, according to manufacturer's instructions, before an overnight incubation at 4° C. with indicated antibodies and membranes. Membranes were then incubated with the appropriate horseradish peroxidase-conjugated secondary antibodies (1:5,000 dilution) for 1 h at room temperature and the bands were visualized using the Clarity Max Western ECL Substrate (Biorad) and the ChemiDoc Imaging System (Biorad). Signal was detected with ECL Western Blotting Substrate (Pierce) and X-ray film processed with a Konica SRX-101 X-ray film processor or captured by Bio-Rad's Chemidoc Imaging system.
MCF7 cells (3×10^6) were treated for 24 h with the compounds solubilized in DMSO. Compounds were added at 100 nM-10 μM. Standardized protein samples were electrophoresed and imaged as described in the Immunoblotting section above. FIG. 69 depicts the CURE-PRO-mediated BRD4 degradation for the BRD-E9 monomer and VHL ligands 8305 combined in a 1:1 ratio, and FIG. 70 depicts the CURE-PRO-mediated BRD4 degradation for the BRD-E20 monomer and 8305.
MCF7 cells (3×10^6) were treated for 24 h with the compounds solubilized in DMSO. Compounds were added at 1 μM-10 μM. Standardized protein samples were electrophoresed and imaged as described in the Immunoblotting section above. FIG. 71 depicts the CURE-PRO-mediated BRD4 degradation for the BRD-E50 monomer and VHL ligands 8305 and 8304 combined in a 1:1 ratio.
Background: Immunoblotting shows a protein as a band on a membrane.

Assay [2] deals with T1, BRD4. Kind of assay: CURE-PRO-mediated BRD4 degradation in MCF7 cells, WES (ProteinSimple). Format: cell-based. Details: endogenous in cells. The procedure: WES Simple analysis was performed on WES system (ProteinSimple-Biotechne) according to the manufacturer's instructions. Total protein concentrations of cell lysates were determined by the Pierce BCA kit (Thermo Fisher). 3 μL of 0.3 μg/μL of the protein lysate was loaded onto a 12- to 230-kDa WES assay plate (ProteinSimple) where 300 nL sample was withdrawn through a capillary, subjected to electrophoretic separation of proteins by size, and followed by the simultaneous, HRP-based detection of proteins using the Anti-Rabbit Detection Module (Proteinsimple: #DM-001). The electropherograms were checked then the automatic peak detection was manually corrected if it was required.
MCF7 cells (3×10^6) were treated for 4-24 hours continually (FIG. 72), or treated for 4 h, washed and incubated for a further 4-24 h with the compounds solubilized in DMSO. Compounds were added at 10 μM each. Cells were washed, lysed, and clarified by centrifugation. The total protein concentration was quantified by the BCA method (ThermoFisher Sciences). Standardized protein samples were electrophoresed and imaged as described in the WES Proteinsimple section above. FIG. 69 depicts the CURE-PRO-mediated BRD4 degradation for the BRD-E50 monomer, and VHL ligand, 8305.
MCF7 cells (3×10^6) were treated for 24 hours with the compounds solubilized in DMSO. CURE-PRO monomers were added at 10 μM each and the proteasomal inhibitors at 1 μM. Standardized protein samples were electrophoresed and imaged as described in the WES Proteinsimple section above. FIGS. 73 and 75 depicts the dependence of the proteasome for CURE-PRO-mediated BRD4 degradation.
MCF7 cells (3×10^6) were treated for 24 hours with the compounds solubilized in DMSO. CURE-PRO monomers were added at 10 μM. FIG. 74 depicts the CURE-PRO-mediated BRD4 degradation for the BRD-E50 monomer, and VHL ligand, 8305 combined in a 1:1 ratio after 24 h.

For a further assay, the target named is T2, BRD2 (Homo sapiens, UniProt P25440).
T2 construct: endogenous in cells; host or cells: HCT116
As to the kind of experiment: BRD protein family degradation in HCT116 cells, Western blot: BRD2. Format: cell-based. The note with it: 1:1 with MDM2 ligands 8310 and 8312 (each), HCT116, 24 h, 100 nM-10 μM. The procedure: as §1, with “Membranes were then incubated with the appropriate horseradish peroxidase-conjugated secondary antibodies (1:5,000 dilution) for 1 h at room temperature and the bands were visualized using the Clarity Max Western ECL Substrate (Biorad) and the ChemiDoc Imaging System (Biorad).” left out, “system. […]” for “system.”

The subject of a further assay is SLC19A1. Kind of assay: RT-PCR of c-MYC downstream target gene SLC19A1 in HeLa cells. Format: cell-based, Human. The following applies: 10 μM each, 24 h. The procedure:
The suppression of the expression of the downstream c-MYC target, SLC19A1, was measured by RT-PCR using Power SYBR® Green Cells-to-Ct™ Kit (Life Technologies). Adherent cells were plated on 96 well plates at 5,000 cells per well were treated for 24 h with monomer compounds and compounds capable of reversible interactions (1 nM-100 μM). Cells were subsequently washed in ice-cold PBS processed according to the manufacturer's instructions. Quantitative real-time PCR was performed using a ViiA™ 7 Real-time PCR System (Applied Biosystems, Foster City, Calif., USA). GAPDH and ACTB served as internal controls.
HeLa cells (1×10^4) were treated for 24 hours in 96 well plates with the compounds solubilized in DMSO. Compounds were added at 10 μM each and RNA expression measured by the Cells-to Ct method described above (Thermofisher).

“Also recorded” adds a separate entry of the source.

T2 sequence (P25440 whole entry): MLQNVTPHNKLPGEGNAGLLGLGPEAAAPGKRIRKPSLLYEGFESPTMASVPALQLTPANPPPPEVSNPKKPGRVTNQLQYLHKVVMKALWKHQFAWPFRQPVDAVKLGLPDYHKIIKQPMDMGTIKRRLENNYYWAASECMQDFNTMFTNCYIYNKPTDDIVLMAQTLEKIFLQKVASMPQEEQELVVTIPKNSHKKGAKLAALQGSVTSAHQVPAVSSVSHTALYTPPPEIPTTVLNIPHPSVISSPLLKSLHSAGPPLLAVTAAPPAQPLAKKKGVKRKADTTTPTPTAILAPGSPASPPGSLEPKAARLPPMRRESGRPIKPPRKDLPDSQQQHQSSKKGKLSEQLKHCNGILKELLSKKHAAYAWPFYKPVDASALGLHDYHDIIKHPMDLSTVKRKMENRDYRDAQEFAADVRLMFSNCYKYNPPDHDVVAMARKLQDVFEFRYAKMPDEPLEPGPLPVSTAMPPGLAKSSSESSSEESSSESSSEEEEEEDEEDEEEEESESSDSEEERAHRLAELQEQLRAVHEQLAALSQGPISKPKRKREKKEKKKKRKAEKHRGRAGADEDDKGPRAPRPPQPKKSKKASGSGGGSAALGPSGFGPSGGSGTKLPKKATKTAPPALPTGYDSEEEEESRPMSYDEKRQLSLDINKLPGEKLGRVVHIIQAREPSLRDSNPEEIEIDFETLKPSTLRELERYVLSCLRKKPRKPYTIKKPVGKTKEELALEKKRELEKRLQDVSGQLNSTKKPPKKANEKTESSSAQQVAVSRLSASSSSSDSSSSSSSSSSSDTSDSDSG

Turning to `CCNC(=O)C[C@@H]1N=C(c2ccc(Cl)cc2)c2cc(OCCCCC(=O)Nc3cccc(B(O)O)c3)ccc2-n2c(C)nnc21` [BRD-E20, (3-(5-(((4S)-6-(4-chlorophenyl)-4-(2-(ethylamino)-2-oxoethyl)-1-methyl-4H-benzo[f][1,2,4]triazolo[4,3-a][1,4]diazepin-8-yl)oxy)pentanamido)phenyl)boronic acid], the BRD4 degradation result at BRD4 [1] was “there is degradation of BRD4”; at BRD4 [2] (1:1 with VHL ligand 8305, MCF7, 10 μM each, 4-24 h) it was “caused BRD4 degradation; also recorded: marked BRD4 degradation”; at BRD4 [2] (co-incubated with VHL ligand 8304, MCF7, 10 μM each), “failed to induce BRD4 degradation”. The “BRD4 degradation with proteasome inhibitors” value at BRD4 [2] (1:1 with 8305 at 10 μM, pre-incubation with MG-132 and Carfilzomib 1 μM, MCF7) is “inhibited by the pre-incubation with MG-132 and Carfilzomib; also recorded: inhibited with the proteasome inhibitors, MG-132 and Carfilzomib”.

Turning to `CCNC(=O)C[C@@H]1N=C(c2ccc(Cl)cc2)c2cc(OCCOCCNC(=O)c3cccc(O)c3O)ccc2-n2c(C)nnc21` [BRD-N39, N-(2-(2-(((4S)-6-(4-chlorophenyl)-4-(2-(ethylamino)-2-oxoethyl)-1-methyl-4H-benzo[f][1,2,4]triazolo[4,3-a][1,4]diazepin-8-yl)oxy)ethoxy)ethyl)-2,3-dihydroxybenzamide], the BRD2 degradation result on BRD2 was “BRD2 to a lesser extent; also recorded: Degradation is evident”. Further, the “suppression of SLC19A1 expression” value with SLC19A1 (combined with MDM2 ligand 8310, HeLa) is given as “suppression to levels comparable to that of JQ1 treatment”; in the assay with SLC19A1 (combined with MDM2 ligand 8312, HeLa), “Complete suppression; also recorded: completely suppressed”.
